In one data set the test system is HCT-116. The data set is described as follows: Antitumor activity against human HCT-116 cells xenografted in male nude mouse assessed as tumor growth inhibition at 0.5 mg/kg, ip administered twice daily for 14 consecutive days. The class given is functional. As to conditions: read-out: TGI. For orientation: In xenograft studies the graft and the host belong to different species.

Data set [1] can be described thus: Toxicity in male nude mouse assessed as change in body weight at 0.5 mg/kg, ip administered twice daily for 14 consecutive days. Particulars: in vivo. The class given is organism-based.
A short description of data set [2]: Prodrug activation in phosphate buffer saline at pH 7.4 assessed as Escherichia coli nitroreductase mediated 3-fluoro-10-hydroxy-14-methyl-8,13,13b,14-tetrahydroindolo[2',3':3,4]pyrido[2,1-b]quinazolin-5(7H)-one formation by measuring fluorescence emission intensity at 25 uM incubated for 2 hrs in presence of NADH by fluorescence spectrophotometric analysis. As to conditions: isolated protein, pH 7.4, 2 h.

Structures are written as SMILES.

Turning to `CC[C@@]1(O)C(=O)OCc2c1cc1n(c2=O)Cc2cc3c(CN(C)C)c(O)ccc3nc2-1` [TOPOTECAN], the inhibition in vivo at 0.5 mg/kg with HCT-116 turned out to be 82.5%. In addition, the Activity result in data set [1] is “Toxic”.
Consider `CN1c2ccc(F)cc2C(=O)N2CCc3c([nH]c4ccc(OC(=O)/C=C/C(=O)OCc5cc6ccc(OCc7ccccc7)cc6oc5=O)cc34)C21` (centres undefined), for which, in data set [2], the Drug metabolism result is given as “metabolite_notdetected”.
Still for that read-out and setting: in the case of `CN1c2ccc(F)cc2C(=O)N2CCc3c([nH]c4ccc(OC(=O)OCc5cc6ccc(OCc7ccc([N+](=O)[O-])cc7)cc6oc5=O)cc34)C21` (centres undefined) it was “metabolite_detected”.

Source of the values: ChEMBL document CHEMBL6182882, “Evodiamine-Based Nitroreductase Responsive Theranostic Agents for Treatment of Colon Cancer” (J Med Chem, 2025).
